In ChEMBL document CHEMBL1201862, “PubChem BioAssay data set” (2004):
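Five compound concentrations were applied to cells in 96-well plates for 48 hours; endpoints were derived by simple linear interpolation of the resulting dose-response curve. GI50 = concentration required for 50% inhibition of growth.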 Activity calls are given as the source filed them. Cut-off read from the data, not from the text of the source: active = GI50 up to about 1.1 µM and inactive = higher.

What was measured:
Assay in all cases: inhibition of tumour cell growth, NCI panel, 48 h
MDA-MB-435 = test system: MDA-MB-435
SN12C = test system: SN12C
EKVX = test system: EKVX
HL-60 = test system: HL-60
SNB-19 = test system: SNB-19
OVCAR-3 = test system: OVCAR-3
A549 = test system: A549
SF-539 = test system: SF-539
HOP-62 = test system: HOP-62
RPMI-8226 = test system: RPMI-8226
SK-OV-3 = test system: SK-OV-3
UACC-62 = test system: UACC-62
NCI/ADR-RES = test system: NCI/ADR-RES
MDA-MB-231 = test system: MDA-MB-231
OVCAR-5 = test system: OVCAR-5
OVCAR-8 = test system: OVCAR-8
DU-145 = test system: DU-145
MOLT-4 = test system: MOLT-4
ACHN = test system: ACHN
LOX IMVI = test system: LOX IMVI

Compound | GI50 (MDA-MB-435) | GI50 (SN12C) | GI50 (EKVX) | GI50 (HL-60) | GI50 (SNB-19) | GI50 (OVCAR-3) | GI50 (A549) | GI50 (SF-539) | GI50 (HOP-62) | GI50 (RPMI-8226) | GI50 (SK-OV-3) | GI50 (UACC-62) | GI50 (NCI/ADR-RES) | GI50 (MDA-MB-231) | GI50 (OVCAR-5) | GI50 (OVCAR-8) | GI50 (DU-145) | GI50 (MOLT-4) | GI50 (ACHN) | GI50 (LOX IMVI)
COc1ccccc1/C=C/c1cnccn1 | > 10 µM (inactive) | > 10 µM (inactive) | > 10 µM (inactive) | > 10 µM (inactive) | > 10 µM (inactive) | > 10 µM (inactive) | > 10 µM (inactive) | > 10 µM (inactive) | > 10 µM (inactive) | > 10 µM (inactive) | > 10 µM (inactive) | > 10 µM (inactive) | > 10 µM (inactive) | > 10 µM (inactive) | > 10 µM (inactive) | > 10 µM (inactive) | > 10 µM (inactive) | > 10 µM (inactive) | > 10 µM (inactive) | > 10 µM (inactive)
O=[N+]([O-])c1cccc2nc3ccccc3c(NCCCN3CCOCC3)c12 | < 0.0117 µM (active) | < 0.0132 µM (active) | < 0.0127 µM (active) | 0.0302 µM (active) | 0.0304 µM (active) | 0.0184 µM (active) | < 0.0121 µM (active) | 0.0283 µM (active) | < 0.016 µM (active) | 0.0103 µM (active) | 0.0362 µM (active) | 0.0163 µM (active) | 0.044 µM (active) | 0.0189 µM (active) | 0.0287 µM (active) | 0.012 µM (active) | < 0.01 µM (active) | < 0.01 µM (active) | < 0.01 µM (active) | 0.0442 µM (active)
COc1ccc(C(OCC2OC(n3cc(C)c(=O)[nH]c3=O)CC2n2cc(Cn3cc(I)c(=O)[nH]c3=O)nn2)(c2ccccc2)c2ccccc2)cc1 (stereo not given) | > 100 µM (inactive) | > 100 µM (inactive) | > 100 µM (inactive) | 1.58 µM (inactive) | > 100 µM (inactive) | > 100 µM (inactive) | > 100 µM (inactive) | > 100 µM (inactive) | > 100 µM (inactive) | 15.2 µM (inactive) | > 100 µM (inactive) | > 100 µM (inactive) | > 100 µM (inactive) | > 100 µM (inactive) | > 100 µM (inactive) | > 100 µM (inactive) | > 100 µM (inactive) | 7.67 µM (inactive) | > 100 µM (inactive) | > 100 µM (inactive)
CC1=C(/C=C/C(C)=C/C=C/C(C)=C/C(=O)Nc2ccc(O)cc2)C(C)(C)CCC1 [FENRETINIDE] | 3.09 µM (inactive) | 2.52 µM (inactive) | 9.25 µM (inactive) | 0.893 µM (active) | 6.5 µM (inactive) | 2.55 µM (inactive) | 5.97 µM (inactive) | 1.05 µM (active) | 5.46 µM (inactive) | 1.65 µM (inactive) | 6.68 µM (inactive) | 2.12 µM (inactive) | 2.71 µM (inactive) | 2.95 µM (inactive) | 10.6 µM (inactive) | 3.61 µM (inactive) | 7.6 µM (inactive) | 1.11 µM (active) | 4.19 µM (inactive) | 1.74 µM (inactive)
CN(C)c1ccc(/C=C2\N=C(c3ccccc3)N(c3ccc4c(c3)Sc3cc(N5C(=O)/C(=C/c6ccc(N(C)C)cc6)N=C5c5ccccc5)ccc3N4)C2=O)cc1 | 21.5 µM (inactive) | 19.1 µM (inactive) | 25.8 µM (inactive) | 27.5 µM (inactive) | 17.5 µM (inactive) | 12.2 µM (inactive) | 22.1 µM (inactive) | 17.5 µM (inactive) | 13.7 µM (inactive) | 20.4 µM (inactive) | 13.6 µM (inactive) | 16.6 µM (inactive) | 28.4 µM (inactive) | 18.2 µM (inactive) | 18.8 µM (inactive) | 18.1 µM (inactive) | 22.1 µM (inactive) | 61.5 µM (inactive) | 16.7 µM (inactive) | 19.5 µM (inactive)
CCCCCCCCCCCCCCCC(=O)Nc1ccn(C2CC(OP(=O)(O)OCC3OC(n4cc(F)c(=O)[nH]c4=O)CC3OC(C)=O)C(CO)O2)c(=O)n1 (stereo not given) | 34.7 µM (inactive) | 6.03 µM (inactive) | > 61.2 µM (inactive) | 3.94 µM (inactive) | 2.73 µM (inactive) | > 53.2 µM (inactive) | 0.836 µM (active) | 0.07 µM (active) | 0.351 µM (active) | 3.81 µM (inactive) | > 21.2 µM (inactive) | 8.32 µM (inactive) | 11.4 µM (inactive) | > 43.4 µM (inactive) | > 41.8 µM (inactive) | 3.78 µM (inactive) | 3.61 µM (inactive) | 7.55 µM (inactive) | 0.128 µM (active) | 1.29 µM (inactive)
Cc1ccc(-c2nnc(-c3ccc4ccccc4c3)o2)cc1 | 8.11 µM (inactive) | 14.6 µM (inactive) | 40.2 µM (inactive) | 2.93 µM (inactive) | > 96.6 µM (inactive) | 99.1 µM (inactive) | > 100 µM (inactive) | 19.6 µM (inactive) | 18 µM (inactive) | 6.78 µM (inactive) | 56.2 µM (inactive) | 13 µM (inactive) | 12.7 µM (inactive) | 25.8 µM (inactive) | > 61.8 µM (inactive) | 12.4 µM (inactive) | 18.2 µM (inactive) | 3.13 µM (inactive) | > 100 µM (inactive) | 11.3 µM (inactive)
N/C(=N\N=C\c1c[nH]c2ccccc12)Nc1ccccc1 | 0.02 µM (active) | 0.535 µM (active) | 2.92 µM (inactive) | 0.144 µM (active) | 0.54 µM (active) | 0.134 µM (active) | 0.455 µM (active) | 0.332 µM (active) | 0.308 µM (active) | 1 µM (active) | 0.418 µM (active) | 0.248 µM (active) | 0.148 µM (active) | 0.624 µM (active) | 3.13 µM (inactive) | 0.41 µM (active) | 0.314 µM (active) | 0.938 µM (active) | 0.671 µM (active) | 0.36 µM (active)
N=C(N)c1ccc(/N=N\c2c(O)c(C(=O)Nc3ccccc3)cc3ccccc23)cc1 | 41.5 µM (inactive) | 23.8 µM (inactive) | 17 µM (inactive) | 7.98 µM (inactive) | 19.6 µM (inactive) | 32.7 µM (inactive) | > 59.6 µM (inactive) | 21 µM (inactive) | 14.5 µM (inactive) | 4.6 µM (inactive) | > 32.6 µM (inactive) | > 87.5 µM (inactive) | > 100 µM (inactive) | 8.04 µM (inactive) | 31.6 µM (inactive) | 16.1 µM (inactive) | > 100 µM (inactive) | 2.58 µM (inactive) | 23.3 µM (inactive) | 2.02 µM (inactive)
C1CSCCCSCCCSCCCSCCCSC1 | 41.9 µM (inactive) | 37.2 µM (inactive) | 24.5 µM (inactive) | 14.2 µM (inactive) | 37.9 µM (inactive) | 28.6 µM (inactive) | 28.5 µM (inactive) | 43.7 µM (inactive) | 47.4 µM (inactive) | 5.32 µM (inactive) | 34.4 µM (inactive) | 44.6 µM (inactive) | 14.9 µM (inactive) | 29.2 µM (inactive) | 57.8 µM (inactive) | 29 µM (inactive) | 46.5 µM (inactive) | 9.82 µM (inactive) | 29.2 µM (inactive) | 17.4 µM (inactive)
CNS(=O)(=O)c1ccccc1C(=N)c1ccccc1 | > 100 µM (inactive) | > 100 µM (inactive) | > 100 µM (inactive) | > 100 µM (inactive) | > 100 µM (inactive) | > 100 µM (inactive) | > 100 µM (inactive) | > 100 µM (inactive) | > 100 µM (inactive) | > 100 µM (inactive) | > 100 µM (inactive) | > 100 µM (inactive) | > 100 µM (inactive) | > 100 µM (inactive) | > 100 µM (inactive) | > 100 µM (inactive) | > 100 µM (inactive) | > 100 µM (inactive) | > 100 µM (inactive) | > 100 µM (inactive)
O=C(CNc1ccccc1[N+](=O)[O-])Nn1c(-c2ccccc2)nc2ccccc2c1=O | 24.5 µM (inactive) | 25.8 µM (inactive) | 19.6 µM (inactive) | 31.7 µM (inactive) | 22.8 µM (inactive) | 29.4 µM (inactive) | 43.5 µM (inactive) | 19.7 µM (inactive) | 20.1 µM (inactive) | 20.9 µM (inactive) | 30.7 µM (inactive) | 10.7 µM (inactive) | 25.7 µM (inactive) | 15.7 µM (inactive) | 22.3 µM (inactive) | 33.8 µM (inactive) | 28.7 µM (inactive) | 16.1 µM (inactive) | 22.2 µM (inactive) | 11.2 µM (inactive)
CN(C)c1ccc(/C=C/C(=O)c2ccc(O)cc2)cc1 | 1.27 µM (inactive) | 5.37 µM (inactive) | 31.3 µM (inactive) | 1.79 µM (inactive) | 25.1 µM (inactive) | 2.9 µM (inactive) | 6.27 µM (inactive) | 3.2 µM (inactive) | 10.1 µM (inactive) | 3.85 µM (inactive) | 4.78 µM (inactive) | 4.08 µM (inactive) | 2.98 µM (inactive) | 22.3 µM (inactive) | 38.6 µM (inactive) | 7.29 µM (inactive) | 8.67 µM (inactive) | 2.64 µM (inactive) | 18.8 µM (inactive) | 6.35 µM (inactive)
O=C(Nc1ccccc1C(=O)O)/C(=C/c1ccccc1)NC(=O)c1ccccc1 | > 100 µM (inactive) | > 100 µM (inactive) | > 100 µM (inactive) | > 100 µM (inactive) | > 100 µM (inactive) | > 100 µM (inactive) | > 100 µM (inactive) | > 100 µM (inactive) | > 100 µM (inactive) | > 100 µM (inactive) | > 100 µM (inactive) | > 100 µM (inactive) | > 100 µM (inactive) | > 100 µM (inactive) | > 100 µM (inactive) | > 100 µM (inactive) | > 100 µM (inactive) | > 100 µM (inactive) | > 100 µM (inactive) | > 100 µM (inactive)
